Results published in patent US7998995B2 (Exelixis Patent Company LLC, priority 2006, dated 2011).

Columns and labels:
LXR = test system: T1, LXR; test: Measured EC50 or IC50 for LXR (LXRα and/or LXRβ; assay and subtype not given); conditions: IC50 or EC50 class, subtype not specified
T1 construct: fused on or other part: GST fused to the LBD in the FRET assay
Procedure: (§1) Measured EC50 or IC50 for LXR, and FXR for Compounds of the Invention
(§2) LXR and FXR activities for various compounds of the invention are presented in the following table; those compounds with EC50 or IC50 values <10 μM for at least one of LXRα, LXRβ or FXR are considered to be active. In the following Table, IC50 or EC50 data is represented as follows: A<1 μM, B=1-10 μm, and C>10 μM.

FXR = target: T2, FXR (Homo sapiens, UniProt Q96RI1); test: Measured EC50 or IC50 for FXR (assay not given); conditions: IC50 or EC50 class; assay not specified
T2 sequence (Q96RI1 1-472 isoform Q96RI1-2): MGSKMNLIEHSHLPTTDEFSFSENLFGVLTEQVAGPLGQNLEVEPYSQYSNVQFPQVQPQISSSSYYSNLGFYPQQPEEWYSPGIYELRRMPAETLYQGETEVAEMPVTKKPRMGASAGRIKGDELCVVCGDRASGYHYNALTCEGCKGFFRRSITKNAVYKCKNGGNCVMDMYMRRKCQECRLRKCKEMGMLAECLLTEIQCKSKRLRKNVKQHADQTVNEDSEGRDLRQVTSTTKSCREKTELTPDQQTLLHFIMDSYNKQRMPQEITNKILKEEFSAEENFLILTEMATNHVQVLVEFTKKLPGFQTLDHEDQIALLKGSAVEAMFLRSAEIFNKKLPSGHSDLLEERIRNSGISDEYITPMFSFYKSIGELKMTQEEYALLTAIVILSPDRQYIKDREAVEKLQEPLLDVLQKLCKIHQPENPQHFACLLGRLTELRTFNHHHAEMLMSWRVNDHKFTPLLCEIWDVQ
Procedure: as §1, §2

EC50 (LXR) | EC50 (FXR) | Compound
< 1 µM | > 10 µM | Cc1cc(-c2cccc(S(C)(=O)=O)c2)ccc1-n1nc(C(C)(C)O)c(Cl)c1-c1c(F)cccc1Cl [Example 968, 2-{4-chloro-5-(2-chloro-6-fluorophenyl)-1-[3-methyl-3′-(methylsulfonyl)biphenyl-4-yl]-1H-pyrazol-3-yl}propan-2-ol]
< 1 µM | 1 to 10 µM | O=C(O)c1ccc(-c2ccc(OCc3cc(C(F)(F)F)nn3-c3c(Cl)cccc3Cl)cc2)c(Cl)c1 [Example 946, 2-chloro-4′-({[1-(2,6-dichlorophenyl)-3-(trifluoromethyl)-1H-pyrazol-5-yl]methyl}oxy)biphenyl-4-carboxylic acid]
< 1 µM | 1 to 10 µM | CC(C)(O)c1cc(-c2c(Cl)cccc2Cl)n(-c2ccc(-c3cccc(S(C)(=O)=O)c3)cc2Cl)n1 [Example 965, 2-{1-[3-chloro-3′-(methylsulfonyl)biphenyl-4-yl]-5-(2,6-dichlorophenyl)-1H-pyrazol-3-yl}propan-2-ol]
1 to 10 µM | < 1 µM | CC(C)c1cc(COc2ccc(-c3ccc(C(=O)O)cc3Cl)cc2)n(-c2c(Cl)cccc2Cl)n1 [Example 907, 2-chloro-4′-({[1-(2,6-dichlorophenyl)-3-(1-methylethyl)-1H-pyrazol-5-yl]methyl}oxy)biphenyl-4-carboxylic acid]
< 1 µM | < 1 µM | Cc1cc(-c2cccc(S(C)(=O)=O)c2)ccc1-c1cc(C(C)(C)O)nn1-c1c(Cl)cccc1Cl [Example 960, 2-{1-(2,6-dichlorophenyl)-5-[3-methyl-3′-(methylsulfonyl)biphenyl-4-yl]-1H-pyrazol-3-yl}propan-2-ol]
1 to 10 µM | < 1 µM | Cc1cc(-c2cc(C(C)(C)O)nn2-c2c(Cl)cccc2Cl)ccc1-c1cccc(S(C)(=O)=O)c1 [Example 961, 2-{1-(2,6-dichlorophenyl)-5-[2-methyl-3′-(methylsulfonyl)biphenyl-4-yl]-1H-pyrazol-3-yl}propan-2-ol]
< 1 µM | 1 to 10 µM | CC(C)(O)c1cc(-c2ccc(-c3cccc(S(C)(=O)=O)c3)s2)n(-c2c(Cl)cncc2Cl)n1 [Example 955, 2-[1-(3,5-dichloropyridin-4-yl)-5-{5-[3-(methylsulfonyl)phenyl]-2-thienyl}-1H-pyrazol-3-yl]propan-2-ol]
1 to 10 µM | 1 to 10 µM | CC(C)(O)c1cc(COc2ccc(-c3ccc(C(=O)O)cc3Cl)cc2)n(-c2c(Cl)cccc2Cl)n1 [Example 906, 2-chloro-4′-({[1-(2,6-dichlorophenyl)-3-(1-hydroxy-1-methylethyl)-1H-pyrazol-5-yl]methyl}oxy)biphenyl-4-carboxylic acid]
< 1 µM | < 1 µM | CC(C)(O)c1cc(-c2ccc(-c3cccc(S(C)(=O)=O)c3)cc2Cl)n(-c2c(Cl)cccc2Cl)n1 [Example 958, 2-{5-[3-chloro-3′-(methylsulfonyl)biphenyl-4-yl]-1-(2,6-dichlorophenyl)-1H-pyrazol-3-yl}propan-2-ol]
< 1 µM | 1 to 10 µM | CC(C)(O)c1nn(-c2c(Cl)cccc2Cl)c(-c2ccc(-c3cccc(S(C)(=O)=O)c3)s2)c1Cl [Example 953, 2-[4-chloro-1-(2,6-dichlorophenyl)-5-{5-[3-(methylsulfonyl)phenyl]-2-thienyl}-1H-pyrazol-3-yl]propan-2-ol]
< 1 µM | 1 to 10 µM | CC(C)(O)c1cc(-c2ccc(-c3cccc(S(C)(=O)=O)c3)s2)n(-c2c(Cl)cccc2Cl)n1 [Example 949, 2-[1-(2,6-dichlorophenyl)-5-{5-[3-(methylsulfonyl)phenyl]-2-thienyl}-1H-pyrazol-3-yl]propan-2-ol]
< 1 µM | < 1 µM | CC(C)(O)c1nn(-c2c(Cl)cccc2Cl)c(-c2ccc(-c3cccc(S(C)(=O)=O)c3)cc2Cl)c1Cl [Example 959, 2-{4-chloro-5-[3-chloro-3′-(methysulfonyl)biphenyl-4-yl]-1-(2,6-dichlorophenyl)-1H-pyrazol-3-yl}propan-2-ol]
1 to 10 µM | 1 to 10 µM | Cc1cc(-n2nc(C(C)(C)O)cc2-c2c(Cl)cccc2Cl)ccc1-c1cccc(S(C)(=O)=O)c1 [Example 970, 2-{5-(2,6-dichlorophenyl)-1-[2-methyl-3′-(methylsulfonyl)biphenyl-4-yl]-1H-pyrazol-3-yl}propan-2-ol]
< 1 µM | 1 to 10 µM | Cc1cc(-c2cccc(S(C)(=O)=O)c2)ccc1-n1nc(C(C)(C)O)cc1-c1c(Cl)cccc1Cl [Example 966, 2-{5-(2,6-dichlorophenyl)-1-[3-methyl-3′-(methylsulfonyl)biphenyl-4-yl]-1H-pyrazol-3-yl}propan-2-ol]
< 1 µM | 1 to 10 µM | Cc1cccc(Cl)c1-n1nc(C(C)(C)O)cc1-c1ccc(-c2cccc(S(C)(=O)=O)c2)s1 [Example 952, 2-[1-(2-chloro-6-methylphenyl)-5-{5-[3-(methylsulfonyl)phenyl]-2-thienyl}-1H-pyrazol-3-yl]propan-2-ol]
1 to 10 µM | 1 to 10 µM | Cc1cc(-n2nc(C(C)(C)O)cc2-c2c(F)cccc2Cl)ccc1-c1cccc(S(C)(=O)=O)c1 [Example 969, 2-{5-(2-chloro-6-fluorophenyl)-1-[2-methyl-3′-(methylsulfonyl)biphenyl-4-yl]-1H-pyrazol-3-yl}propan-2-ol]
< 1 µM | 1 to 10 µM | CC(C)(O)c1cc(-c2c(Cl)cccc2Cl)n(-c2ccc(-c3cccc(S(C)(=O)=O)c3)cc2)n1 [Example 963, 2-{5-(2,6-dichlorophenyl)-1-[3′-(methylsulfonyl)biphenyl-4-yl]-1H-pyrazol-3-yl}propan-2-ol]
> 10 µM | 1 to 10 µM | O=C(O)c1ccc(-c2ccc(OCc3cc(C(F)(F)F)nn3-c3c(Cl)cccc3Cl)cc2)cc1 [Example 921, 4′-({[1-(2,6-dichlorophenyl)-3-(trifluoromethyl)-1H-pyrazol-5-yl]methyl}oxy)biphenyl-4-carboxylic acid]
< 1 µM | 1 to 10 µM | Cc1cc(-c2cccc(S(C)(=O)=O)c2)ccc1-n1nc(C(C)(C)O)c(Cl)c1-c1c(Cl)cccc1Cl [Example 967, 2-{4-chloro-5-(2,6-dichlorophenyl)-1-[3-methyl-3′-(methylsulfonyl)biphenyl-4-yl]-1H-pyrazol-3-yl}propan-2-ol]
< 1 µM | < 1 µM | CC(C)c1cc(COc2ccc(-c3ccc(C(=O)O)cc3Cl)cc2)n(-c2c(Cl)cccc2Cl)n1 [Example 947, 2-chloro-4′-({[1-(2,6-dichlorophenyl)-3-(1-methylethyl)-1H-pyrazol-5-yl]methyl}oxy)biphenyl-4-carboxylic acid]
< 1 µM | 1 to 10 µM | CC(C)(O)c1cc(-c2ccc(-c3cccc(S(C)(=O)=O)c3)s2)n(-c2c(F)cccc2Cl)n1 [Example 950, 2-[1-(2-chloro-6-fluorophenyl)-5-{5-[3-(methylsulfonyl)phenyl]-2-thienyl}-1H-pyrazol-3-yl]propan-2-ol]
< 1 µM | 1 to 10 µM | CC(C)(O)c1cc(-c2c(F)cccc2Cl)n(-c2ccc(-c3cccc(S(C)(=O)=O)c3)cc2)n1 [Example 962, 2-{5-(2-chloro-6-fluorophenyl)-1-[3′-(methylsulfonyl)biphenyl-4-yl]-1H-pyrazol-3-yl}propan-2-ol]
< 1 µM | 1 to 10 µM | CC(C)(O)c1nn(-c2c(F)cccc2Cl)c(-c2ccc(-c3cccc(S(C)(=O)=O)c3)s2)c1Cl [Example 954, 2-[4-chloro-1-(2-chloro-6-fluorophenyl)-5-{5-[3-(methylsulfonyl)phenyl]-2-thienyl}-1H-pyrazol-3-yl]propan-2-ol]
< 1 µM | 1 to 10 µM | CC(C)(O)c1cc(-c2ccc(-c3cccc(S(C)(=O)=O)c3)s2)n(-c2c(F)cccc2C(F)(F)F)n1 [Example 951]
